According to article PMC8286840, “Identifying SARS-CoV-2 antiviral compounds by screening for small molecule inhibitors of Nsp3 papain-like protease” (Biochemical Journal, 2021):
Where a name gives a salt, the structure may show the parent alone. Read-outs that look alike come from different tables or passages of the source.

Legend:
[1] = target: T1, SARS-CoV-2 PLpro (nsp3 1564–1878) (Severe acute respiratory syndrome coronavirus 2, UniProt P0DTD1); assay: biochemical; set-up: FRET-quenched peptide (Pro3) cleavage by PLpro, 10 min pre-incubation, slope over 20 min, normalised to no-compound control; details: low concentration screen, read-out: % of control remaining
[2] = target: T1, SARS-CoV-2 PLpro (nsp3 1564–1878); assay: biochemical; set-up: FRET-quenched peptide (Pro3) cleavage by PLpro, 10 min pre-incubation, slope over 20 min, normalised to no-compound control; details: high concentration screen, read-out: % of control remaining

Compound: CO[C@H]1[C@@H](OC)C[C@H](C)[C@@H](OC)C2=CC(=O)C=C(NC(=O)/C(C)=C/C=C\[C@H](OC)[C@@H](OC(N)=O)/C(C)=C/[C@@H]1C)C2=O [Herbimycin A, Streptomyces sp.]
- remaining activity at 1.25 µM ([1]; Well no.=2419): 104%
- remaining activity at 3.75 µM ([2]; Well no.=2419): 111%

Compound: COc1ccc2cc1Oc1ccc(cc1)C[C@H]1c3cc(c(OC)cc3CCN1C)Oc1c(OC)c(OC)c(OC)c3c1[C@H](C2)N(C)CC3 [Hernandezine]
- remaining activity at 1.25 µM ([1]; Well no.=3151): 100%
- remaining activity at 3.75 µM ([2]; Well no.=3151): 101%

Compound: CCS(=O)(=O)Nc1ccc2c(c1)/C(=C(/Nc1ccc(CN3CCCCC3)cc1)c1ccccc1)C(=O)N2 [Hesperadin]
- remaining activity at 1.25 µM ([1]; Well no.=5262): 99.1%
- remaining activity at 3.75 µM ([2]; Well no.=5262): 88.4%

Compound: COc1ccc([C@@H]2CC(=O)c3c(O)cc(O)cc3O2)cc1O [Hesperetin]
- remaining activity at 1.25 µM ([1]; Well no.=6630): 103%
- remaining activity at 3.75 µM ([2]; Well no.=6630): 104%

Compound: CCN1C[C@]2(C)CC[C@H](OC)[C@]34C1[C@H]([C@@H](O)[C@H]23)[C@@]1(O)CC[C@H]2C[C@@H]4[C@@H]1C(=O)O2 [Heteratisine]
- remaining activity at 1.25 µM ([1]; Well no.=3153): 102%
- remaining activity at 3.75 µM ([2]; Well no.=3153): 105%

Compound: N[C@@H](Cc1cnc[nH]1)C(=O)N[C@@H](Cc1cnc[nH]1)C(=O)N[C@@H](Cc1cnc[nH]1)C(=O)N[C@@H](Cc1cnc[nH]1)C(=O)N[C@@H](Cc1cnc[nH]1)C(=O)N[C@@H](Cc1cnc[nH]1)C(=O)O [Hexa-His]
- remaining activity at 1.25 µM ([1]; Well no.=8312): 94.5%
- remaining activity at 3.75 µM ([2]; Well no.=8312): 96.4%

Compound: O=C(O)CCCCCCCCCCCCCCC(=O)O [Hexadecanedioic acid]
- remaining activity at 1.25 µM ([1]; Well no.=6685): 104%
- remaining activity at 3.75 µM ([2]; Well no.=6685): 106%

Compound: CCCCCCCCCCCCCCCC(=O)O [Hexadecanoic acid]
- remaining activity at 1.25 µM ([1]; Well no.=4302): 101%
- remaining activity at 3.75 µM ([2]; Well no.=4302): 97.2%

Compound: C[N+](C)(C)CCCCCC[N+](C)(C)C [Hexamethonium bromide]
- remaining activity at 1.25 µM ([1]; Well no.=702): 98.3%
- remaining activity at 3.75 µM ([2]; Well no.=702): 100%

Compound: C[N+](C)(C)CCCCCC[N+](C)(C)C [Hexamethonium dichloride]
- remaining activity at 1.25 µM ([1]; Well no.=656): 90.7%
- remaining activity at 3.75 µM ([2]; Well no.=656): 89.9%

Compound: CC[C@H](c1ccc(O)cc1)[C@@H](CC)c1ccc(O)cc1 [Hexestrol]
- remaining activity at 1.25 µM ([1]; Well no.=2182): 99.9%
- remaining activity at 3.75 µM ([2]; Well no.=2182): 100%

Compound: C[C@@H]1OC(=O)[C@H]2C[C@H]3CCCC[C@@H]3[C@@H](/C=C/[C@H]3CCC[C@H](C)N3C)[C@@H]12 [Himbacine]
- remaining activity at 1.25 µM ([1]; Well no.=3329): 99%
- remaining activity at 3.75 µM ([2]; Well no.=3329): 98.7%

Compound: CC(C)c1cccc(=O)c(O)c1 [Hinokitiol]
- remaining activity at 1.25 µM ([1]; Well no.=3893): 105%
- remaining activity at 3.75 µM ([2]; Well no.=3893): 103%

Compound: O=C(O)CNC(=O)c1ccccc1 [Hippuric acid]
- remaining activity at 1.25 µM ([1]; Well no.=7309): 109%
- remaining activity at 3.75 µM ([2]; Well no.=7309): 106%

Compound: O=c1cc(O)cc(/C=C/c2ccc(O)c(O)c2)o1 [Hispidin]
- remaining activity at 1.25 µM ([1]; Well no.=754): 98.7%
- remaining activity at 3.75 µM ([2]; Well no.=754): 96.8%

Compound: O=C1/C(=C/c2ccc(O)cc2)Oc2cc(O)ccc21 [Hispidol]
- remaining activity at 1.25 µM ([1]; Well no.=6966): 95.6%
- remaining activity at 3.75 µM ([2]; Well no.=6966): 93%

Compound: NCCc1c[nH]cn1 [Histamine (phosphate)]
- remaining activity at 1.25 µM ([1]; Well no.=6717): 95.8%
- remaining activity at 3.75 µM ([2]; Well no.=6717): 91.6%

Compound: NCCc1c[nH]cn1 [Histamine dihydrochloride]
- remaining activity at 1.25 µM ([1]; Well no.=564): 103%
- remaining activity at 3.75 µM ([2]; Well no.=564): 101%

Compound: NCCc1c[nH]cn1 [Histamine]
- remaining activity at 1.25 µM ([1]; Well no.=6665): 105%
- remaining activity at 1.25 µM ([1]; Well no.=7059): 102%
- remaining activity at 3.75 µM ([2]; Well no.=6665): 103%
- remaining activity at 3.75 µM ([2]; Well no.=7059): 109%

Compound: C[N+]1(C)[C@@H]2CC[C@H]1C[C@@H](OC(=O)C(O)c1ccccc1)C2 (stereo partly drawn) [Homatropine (methylbromide)]
- remaining activity at 1.25 µM ([1]; Well no.=7379): 94.7%
- remaining activity at 3.75 µM ([2]; Well no.=7379): 96%

Compound: C[N+]1(C)[C@@H]2CC[C@H]1C[C@@H](OC(=O)C(O)c1ccccc1)C2 (stereo partly drawn) [Homatropine Methylbromide]
- remaining activity at 1.25 µM ([1]; Well no.=5080): 98.2%
- remaining activity at 3.75 µM ([2]; Well no.=5080): 101%

Compound: COc1cc(/C=C/C(=O)c2ccc(O)cc2O)ccc1O [Homobutein]
- remaining activity at 1.25 µM ([1]; Well no.=3637): 99.6%
- remaining activity at 3.75 µM ([2]; Well no.=3637): 102%

Compound: COc1cc([C@@H]2CC(=O)c3c(O)cc(O)cc3O2)ccc1O [Homoeriodictyol]
- remaining activity at 1.25 µM ([1]; Well no.=3683): 98.7%
- remaining activity at 3.75 µM ([2]; Well no.=3683): 98.2%
